Laboratory results published in ChEMBL document CHEMBL4433262, “Synthesis and biological evaluation of novel benzo[c][1,2,5]thiadiazol-5-yl and thieno[3,2-c]- pyridin-2-yl imidazole derivatives as ALK5 inhibitors” (Bioorg Med Chem Lett, 2019).
Active and inactive are the calls of the source. The rule behind the calls is not given here.

Legend:
[1] = molecular target: T1, Mitogen-activated protein kinase 14 (Homo sapiens, UniProt Q16539); test: Inhibition of human recombinant untagged p38alpha expressed in Escherichia coli using ATF2 as substrate incubated for 60 mins in presence of [33P]-ATP by scintillation counting method
T1 sequence (Q16539 whole entry): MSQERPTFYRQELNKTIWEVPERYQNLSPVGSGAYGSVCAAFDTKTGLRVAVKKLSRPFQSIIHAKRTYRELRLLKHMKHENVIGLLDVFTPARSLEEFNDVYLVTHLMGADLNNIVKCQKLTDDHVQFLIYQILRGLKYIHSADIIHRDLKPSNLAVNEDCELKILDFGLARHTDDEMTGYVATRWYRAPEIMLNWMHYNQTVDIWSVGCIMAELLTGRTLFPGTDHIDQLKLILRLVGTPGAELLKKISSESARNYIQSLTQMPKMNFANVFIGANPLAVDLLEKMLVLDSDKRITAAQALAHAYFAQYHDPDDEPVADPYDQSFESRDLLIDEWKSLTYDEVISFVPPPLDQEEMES

[2] = molecular target: T2, TGF-beta receptor type-1 (Homo sapiens, UniProt P36897); test: Inhibition of human recombinant GST-tagged ALK5 expressed in Sf9 insect cells using casein as substrate incubated for 60 mins in presence of [33P]-ATP by scintillation counting method
T2 sequence (P36897 whole entry): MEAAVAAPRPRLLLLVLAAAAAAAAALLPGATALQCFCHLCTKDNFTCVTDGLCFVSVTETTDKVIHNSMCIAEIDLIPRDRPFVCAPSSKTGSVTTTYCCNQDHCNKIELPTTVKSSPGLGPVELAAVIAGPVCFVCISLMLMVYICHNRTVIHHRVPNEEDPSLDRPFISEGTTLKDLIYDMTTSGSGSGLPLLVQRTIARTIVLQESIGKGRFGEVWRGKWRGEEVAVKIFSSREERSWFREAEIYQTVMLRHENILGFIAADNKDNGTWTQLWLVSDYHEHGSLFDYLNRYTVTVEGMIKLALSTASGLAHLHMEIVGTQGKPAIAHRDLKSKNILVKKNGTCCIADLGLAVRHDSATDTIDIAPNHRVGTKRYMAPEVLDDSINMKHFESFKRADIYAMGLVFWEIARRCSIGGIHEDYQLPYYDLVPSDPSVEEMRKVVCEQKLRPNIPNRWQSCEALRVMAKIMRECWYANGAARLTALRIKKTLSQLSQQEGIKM

[3] = molecular target: T3, TGF-beta receptor type-1 (Homo sapiens) (UniProt P36897); test: Inhibition of ALK5 in human HepG2 cells assessed as reduction in TGFbeta1-induced Smad2 phosphorylation incubated for 36 hrs by Western blot analysis; assay type: cell-based
T3 sequence (whole entry): T2 sequence (P36897 whole entry)

[4] = molecular target: T1, Mitogen-activated protein kinase 14; test: Potency index, ratio of IC50 for EW-7197 to IC50 for test compound for inhibition of human recombinant untagged p38alpha expressed in Escherichia coli using ATF2 as substrate incubated for 60 mins in presence of [33P]-ATP by scintillation counting
[5] = molecular target: T3, TGF-beta receptor type-1 (Homo sapiens); test: Potency index, ratio of IC50 for LY-2157299 to IC50 for test compound for inhibition of human recombinant GST-tagged ALK5 expressed in Sf9 insect cells using casein as substrate incubated for 60 mins in presence of [33P]-ATP by scintillation counting method
[6] = molecular target: T3, TGF-beta receptor type-1 (Homo sapiens); test: Potency index, ratio of IC50 for EW-7197 to IC50 for test compound for inhibition of human recombinant GST-tagged ALK5 expressed in Sf9 insect cells using casein as substrate incubated for 60 mins in presence of [33P]-ATP by scintillation counting method
[7] = molecular target: T1, Mitogen-activated protein kinase 14; test: Potency index, ratio of IC50 for LY-2157299 to IC50 for test compound for inhibition of human recombinant untagged p38alpha expressed in Escherichia coli using ATF2 as substrate incubated for 60 mins in presence of [33P]-ATP by scintillation counting method
[8] = molecular target: T3, TGF-beta receptor type-1 (Homo sapiens); test: Inhibition of ALK5 in human SPC-A1 cells assessed as reduction in TGFbeta1-induced Smad2 phosphorylation at 0.1 to 0.5 uM incubated for 36 hrs by Western blot analysis; assay type: cell-based
[9] = molecular target: T3, TGF-beta receptor type-1 (Homo sapiens); test: Inhibition of ALK5 in human HUVEC cells assessed as reduction in TGFbeta1-induced cell motility at 10 uM incubated for 0 to 48 hrs by wound healing assay; assay type: cell-based

Cc1cccc(NCc2nc(-c3cc4cnccc4s3)c(-c3cccc(C)n3)[nH]2)c1
IC50 [1]: 2.22 µM
IC50 [2]: 0.019 µM

Cc1cccc(-c2[nH]c(CNc3ccccc3)nc2-c2ccc3nsnc3c2)n1
IC50 [1]: 0.763 µM
IC50 [2]: 0.014 µM

Cc1cccc(-c2[nH]c(CNc3cccc(F)c3)nc2-c2ccc3nsnc3c2)n1
inhibition [3]: Dose-dependent effect
Ratio IC50 [4]: 19.9
Ratio IC50 [5]: 16.1
Ratio IC50 [6]: 1.8
IC50 [1]: 0.148 µM
IC50 [2]: 0.008 µM
Ratio IC50 [7]: 3.3
inhibition [8]: Active
inhibition [9]: Active

Cc1cccc(-c2[nH]c(CNc3ccccc3F)nc2-c2cc3cnccc3s2)n1
IC50 [1]: 6.06 µM
IC50 [2]: 0.023 µM

Cc1cccc(-c2[nH]c(CNc3ccccc3)nc2-c2cc3cnccc3s2)n1
IC50 [1]: 4.4 µM
IC50 [2]: 0.025 µM

Cc1cccc(NCc2nc(-c3ccc4nsnc4c3)c(-c3cccc(C)n3)[nH]2)c1
IC50 [1]: 0.513 µM
IC50 [2]: 0.013 µM

Cc1cccc(-c2[nH]c(CNc3ccccc3C)nc2-c2ccc3nsnc3c2)n1
IC50 [1]: 0.899 µM
IC50 [2]: 0.021 µM

Cc1cccc(-c2[nH]c(CNc3ccccc3F)nc2-c2ccc3nsnc3c2)n1
IC50 [1]: 1.17 µM
IC50 [2]: 0.011 µM

Cc1cccc(-c2[nH]c(CNc3ccccc3C)nc2-c2cc3cnccc3s2)n1
IC50 [1]: 2.44 µM
IC50 [2]: 0.014 µM

Cc1cccc(-c2[nH]c(CNc3cccc(F)c3)nc2-c2cc3cnccc3s2)n1
IC50 [1]: 1.52 µM
IC50 [2]: 0.017 µM

Cc1cccc(-c2[nH]c(CNc3ccc(F)cc3)nc2-c2cc3cnccc3s2)n1
IC50 [1]: 4.84 µM
IC50 [2]: 0.042 µM

Cc1ccc(NCc2nc(-c3ccc4nsnc4c3)c(-c3cccc(C)n3)[nH]2)cc1
IC50 [1]: 7.7 µM
IC50 [2]: 0.022 µM

Cc1ccc(NCc2nc(-c3cc4cnccc4s3)c(-c3cccc(C)n3)[nH]2)cc1
IC50 [1]: > 10 µM
IC50 [2]: 0.043 µM

Cc1cccc(-c2[nH]c(CNc3ccc(F)cc3)nc2-c2ccc3nsnc3c2)n1
IC50 [1]: 0.831 µM
IC50 [2]: 0.01 µM
